# Tests used:
# Rattus norvegicus = species on record: Rattus norvegicus; experiment: Ratio of CCK-B receptor affinity and CCK-A receptor affinity
# [1] = target: T1, Cholecystokinin receptor type A (Rattus norvegicus, UniProt P30551); experiment: Evaluated in vitro for Cholecystokinin type A receptor affinity by measuring its ability to displace tritiated CCK-8S bound on rat pancreas Cholecystokinin type A receptor
# T1 sequence (P30551 whole entry): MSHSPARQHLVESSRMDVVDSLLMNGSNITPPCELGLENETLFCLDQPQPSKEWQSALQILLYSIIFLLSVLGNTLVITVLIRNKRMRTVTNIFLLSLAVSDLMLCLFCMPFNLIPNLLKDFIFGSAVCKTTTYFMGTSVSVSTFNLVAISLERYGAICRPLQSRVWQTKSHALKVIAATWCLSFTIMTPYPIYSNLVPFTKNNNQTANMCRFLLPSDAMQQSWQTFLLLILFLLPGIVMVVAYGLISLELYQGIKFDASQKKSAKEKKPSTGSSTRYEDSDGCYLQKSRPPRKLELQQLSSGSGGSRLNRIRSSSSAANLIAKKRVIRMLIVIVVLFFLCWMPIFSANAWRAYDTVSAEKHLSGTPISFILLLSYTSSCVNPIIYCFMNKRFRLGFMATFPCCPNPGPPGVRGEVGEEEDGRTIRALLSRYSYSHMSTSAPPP
Ratio (Rattus norvegicus),Ki [1] [nM],SMILES
58,2000,O=C(Nc1ccccc1)NC1C(=O)N(CC23CC4CC(CC(C4)C2)C3)c2ccccc2N(CC23CC4CC(CC(C4)C2)C3)C1=O (stereo unspecified)
26,1100,O=C(NC1C(=O)N(CC23CC4CC(CC(C4)C2)C3)c2ccccc2N(C2CCCCC2)C1=O)Oc1ccccc1 (stereo unspecified)
28,794,CC(C)CCN1C(=O)C(NC(=O)Oc2cccc(N(C)C)c2)C(=O)N(CCC(C)C)c2ccccc21
42,1410,CC(C)CCN1C(=O)C(NC(=O)Oc2ccccc2)C(=O)N(CC23CC4CC(CC(C4)C2)C3)c2ccccc21 (stereo unspecified)
209,288,CC(C)CCN1C(=O)C(NC(=O)Nc2ccccc2)C(=O)N(CC23CC4CC(CC(C4)C2)C3)c2ccccc21 (stereo unspecified)
26,61.7,CC(C)CCN1C(=O)C(NC(=O)Nc2ccccc2)C(=O)N(CCC(C)C)c2ccccc21
,229,CC(CC1CCCC1)N1C(=O)C(NC(=O)Nc2ccccc2)C(=O)N(C(C)CC2CCCC2)c2ccccc21 (stereo unspecified)
22,240,O=C(Nc1cccc(Cl)c1)NC1C(=O)N(CC23CC4CC(CC(C4)C2)C3)c2ccccc2N(C2CCCCC2)C1=O (stereo unspecified)

SMILES,Ratio (Rattus norvegicus),Ki [1] [nM]
CC(C)CCN1C(=O)C(NC(=O)Nc2cccc(N(C)C)c2)C(=O)N(CCC(C)C)c2ccccc21,32,83.2
CC(C)CCN1C(=O)C(NC(=O)Nc2cccc(N(C)C)c2)C(=O)N(CC23CC4CC(CC(C4)C2)C3)c2ccccc21 (stereo unspecified),170,955
CC(C)CCN1C(=O)C(NC(=O)Nc2ccccc2)C(=O)N(Cc2ccccc2)c2ccccc21 (stereo unspecified),17,66.1
CC(C)CCN1C(=O)C(NC(=O)Oc2cccc(N(C)C)c2)C(=O)N(CC23CC4CC(CC(C4)C2)C3)c2ccccc21 (stereo unspecified),209,1580
O=C(Nc1ccccc1)NC1C(=O)N(CC23CC4CC(CC(C4)C2)C3)c2ccccc2N(C2CCCCC2)C1=O (stereo unspecified),234,562
"O=C(Nc1ccccc1)N[C@@H]1C(=O)N(CC23CC4CC(CC(C4)C2)C3)c2ccccc2N(c2ccccc2)C1=O (single isomer, unassigned; (+))",,1120

# From ChEMBL document CHEMBL1129775, “Synthesis and evaluation of novel 1,5-Benzodiazepines as potent and selective CCK-B ligands. Effect of the substitution of the N-5 phenyl with alkyl groups” (Bioorg Med Chem Lett, 1996)
